Results published in US20260001928A1 (CORTERIA PHARMACEUTICALS, priority 2022, published 2026).
*1 amine or outer side, *2 acyl side, *3 side chain or, on linkers, in order; H or OH if unused. Where a SMILES comes first, the peptide text is derived from it. Side-chain parts run from the residue outwards. [ ]: non-standard residue; d: D form. The star is where a group is joined. C20 diacid = O=C(O)CCCCCCCCCCCCCCCCCCC(=O)*; C18 diacid = O=C(O)CCCCCCCCCCCCCCCCC(=O)*; C16 diacid = O=C(O)CCCCCCCCCCCCCCC(=O)*; γGlu = O=C(O)[C@H](CCC(=O)[*:2])N[*:1]; NMeI = CC[C@H](C)[C@H](NC)C(=O)O; Pentanoyl = CCCCC(=O)*; AEEA = NCCOCCOCC(=O)O; Aib = CC(C)(N)C(=O)O

These compounds were tested on human LAD2 cells.
Type: cell-based
Method in brief: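 Mast cell degranulation: cells exposed to peptides for 30 min at final concentrations from 50, 100 or 300 down to 0.1 or 0.001 μM, with 0.5% DMSO where used, in biological duplicates. β-hexosaminidase release was read with a fluorogenic 4-methylumbelliferyl substrate as supernatant/(supernatant + Triton-lysed pellet) × 100. EC50 came from a 4-parameter sigmoidal fit.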

EC50 | SMILES
> 100 µM | CC[C@H](C)[C@H](NC(C)=O)C(=O)N[C@H](C(=O)N[C@@H](CC(C)C)C(=O)N[C@@H](CO)C(=O)N[C@@H](CC(C)C)C(=O)N[C@@H](CC(=O)O)C(=O)N[C@@H](C(=O)N1CCC[C@H]1C(=O)N[C@H](C(=O)N[C@@H](CCCCN)C(=O)N[C@@H](CC(C)C)C(=O)N[C@@H](CCCCNC(=O)CC[C@H](NC(=O)CCCCCCCCCCCCCCCCC(=O)O)C(=O)O)C(=O)N[C@@H](CCCCN)C(=O)N[C@H](C(=O)N[C@@H](CC(C)C)C(=O)N[C@@H](CC(C)C)C(=O)N[C@@H](CCC(=O)O)C(=O)N[C@@H](CCC(N)=O)C(=O)N[C@@H](CCC(=O)O)C(=O)N[C@@H](CCCCN)C(=O)N[C@@H](CCC(N)=O)C(=O)N[C@@H](CCCCN)C(=O)N[C@@H](CCCCN)C(=O)N[C@@H](CCC(N)=O)C(=O)N[C@@H](CCCNC(=N)N)C(=O)N[C@@H](CCC(=O)O)C(=O)N[C@@H](CCC(N)=O)C(=O)N[C@@H](C)C(=O)N[C@@H](CCC(=O)O)C(=O)N[C@H](C(=O)N[C@@H](CC(N)=O)C(=O)NC(C)(C)C(=O)N[C@@H](CCC(N)=O)C(=O)N[C@H](C(=O)N[C@@H](CC(C)C)C(=O)N[C@@H](C)C(=O)N[C@@H](CCC(N)=O)C(=O)N[C@H](C(N)=O)C(C)C)[C@@H](C)CC)[C@@H](C)O)[C@@H](C)CC)[C@@H](C)CC)C(C)C)C(C)C [Cmpd 125] (Ac-IVLSLD[dV]PIKLK([γGlu-C18 diacid])KILLEQEKQKKQREQAETN[Aib]QILAQV-NH2)
> 100 µM | CC[C@H](C)[C@H](NC)C(=O)N[C@H](C(=O)N[C@@H](CC(C)C)C(=O)N[C@@H](CO)C(=O)N[C@@H](CC(C)C)C(=O)N[C@@H](CC(=O)O)C(=O)N[C@@H](C(=O)N1CCC[C@H]1C(=O)N[C@H](C(=O)N[C@@H](CCCCN)C(=O)N[C@@H](CC(C)C)C(=O)N[C@@H](CCCCNC(=O)COCCOCCNC(=O)COCCOCCNC(=O)CC[C@H](NC(=O)CCCCCCCCCCCCCCCCC(=O)O)C(=O)O)C(=O)N[C@@H](CCCCN)C(=O)N[C@H](C(=O)N[C@@H](CC(C)C)C(=O)N[C@@H](CC(C)C)C(=O)N[C@@H](CCC(=O)O)C(=O)N[C@@H](CCC(N)=O)C(=O)N[C@@H](CCC(=O)O)C(=O)N[C@@H](CCCCN)C(=O)N[C@@H](CCC(N)=O)C(=O)N[C@@H](CCCCN)C(=O)N[C@@H](CCCCN)C(=O)N[C@@H](CCC(N)=O)C(=O)N[C@@H](CCCNC(=N)N)C(=O)N[C@@H](CCC(=O)O)C(=O)N[C@@H](CCC(N)=O)C(=O)N[C@@H](C)C(=O)N[C@@H](CCC(=O)O)C(=O)N[C@H](C(=O)N[C@@H](CC(N)=O)C(=O)NC(C)(C)C(=O)N[C@@H](CCC(N)=O)C(=O)N[C@H](C(=O)N[C@@H](CC(C)C)C(=O)N[C@@H](C)C(=O)N[C@@H](CCC(N)=O)C(=O)N[C@H](C(N)=O)C(C)C)[C@@H](C)CC)[C@@H](C)O)[C@@H](C)CC)[C@@H](C)CC)C(C)C)C(C)C [Cmpd 118] (H-[NMeI]VLSLD[dV]PIKLK([AEEA-AEEA-γGlu-C18 diacid])KILLEQEKQKKQREQAETN[Aib]QILAQV-NH2)
> 300 µM | CC[C@H](C)[C@H](NC(C)=O)C(=O)N[C@H](C(=O)N[C@@H](CC(C)C)C(=O)N[C@@H](CO)C(=O)N[C@@H](CC(C)C)C(=O)N[C@@H](CC(=O)O)C(=O)N[C@@H](C(=O)N1CCC[C@H]1C(=O)N[C@H](C(=O)N[C@@H](CCCCN)C(=O)N[C@@H](CC(C)C)C(=O)N[C@@H](CCCCNC(=O)CC[C@H](NC(=O)CCCCCCCCCCCCCCC(=O)O)C(=O)O)C(=O)N[C@@H](CCCCN)C(=O)N[C@H](C(=O)N[C@@H](CC(C)C)C(=O)N[C@@H](CC(C)C)C(=O)N[C@@H](CCC(=O)O)C(=O)N[C@@H](CCC(N)=O)C(=O)N[C@@H](CCC(=O)O)C(=O)N[C@@H](CCCCN)C(=O)N[C@@H](CCC(N)=O)C(=O)N[C@@H](CCCCN)C(=O)N[C@@H](CCC(=O)O)C(=O)N[C@@H](CCC(N)=O)C(=O)N[C@@H](CCCNC(=N)N)C(=O)N[C@@H](CCC(=O)O)C(=O)N[C@@H](CCC(N)=O)C(=O)N[C@@H](C)C(=O)N[C@@H](CCC(=O)O)C(=O)N[C@H](C(=O)N[C@@H](CC(N)=O)C(=O)NC(C)(C)C(=O)N[C@@H](CCC(N)=O)C(=O)N[C@H](C(=O)N[C@@H](CC(C)C)C(=O)N[C@@H](C)C(=O)N[C@@H](CCC(N)=O)C(=O)N[C@H](C(N)=O)C(C)C)[C@@H](C)CC)[C@@H](C)O)[C@@H](C)CC)[C@@H](C)CC)C(C)C)C(C)C [Cmpd 168] (Ac-IVLSLD[dV]PIKLK([γGlu-C16 diacid])KILLEQEKQKEQREQAETN[Aib]QILAQV-NH2)
49.2 µM | CC[C@H](C)[C@H](NC)C(=O)N[C@H](C(=O)N[C@@H](CC(C)C)C(=O)N[C@@H](CO)C(=O)N[C@@H](CC(C)C)C(=O)N[C@@H](CC(=O)O)C(=O)N[C@@H](C(=O)N1CCC[C@H]1C(=O)N[C@H](C(=O)N[C@@H](CCCCN)C(=O)N[C@@H](CC(C)C)C(=O)N[C@@H](CCCCNC(=O)COCCOCCNC(=O)CC[C@H](NC(=O)CCCCCCCCCCCCCCCCCCC(=O)O)C(=O)O)C(=O)N[C@@H](CCCCN)C(=O)N[C@H](C(=O)N[C@@H](CC(C)C)C(=O)N[C@@H](CC(C)C)C(=O)N[C@@H](CCC(=O)O)C(=O)N[C@@H](CCC(N)=O)C(=O)N[C@@H](CCC(=O)O)C(=O)N[C@@H](CCCCN)C(=O)N[C@@H](CCC(N)=O)C(=O)N[C@@H](CCCCN)C(=O)NC(C)(C)C(=O)N[C@@H](CCC(N)=O)C(=O)N[C@@H](CCCNC(=N)N)C(=O)N[C@@H](CCC(=O)O)C(=O)N[C@@H](CCC(N)=O)C(=O)N[C@@H](C)C(=O)N[C@@H](CCC(=O)O)C(=O)N[C@H](C(=O)N[C@@H](CC(N)=O)C(=O)NC(C)(C)C(=O)N[C@@H](CCC(N)=O)C(=O)N[C@H](C(=O)N[C@@H](CC(C)C)C(=O)N[C@@H](C)C(=O)N[C@@H](CCC(N)=O)C(=O)N[C@H](C(N)=O)C(C)C)[C@@H](C)CC)[C@@H](C)O)[C@@H](C)CC)[C@@H](C)CC)C(C)C)C(C)C [Cmpd 234] (H-[NMeI]VLSLD[dV]PIKLK([AEEA-γGlu-C20 diacid])KILLEQEKQK[Aib]QREQAETN[Aib]QILAQV-NH2)
88.2 µM | CCCCC(=O)N[C@H](C(=O)N[C@@H](CC(C)C)C(=O)N[C@@H](CO)C(=O)N[C@@H](CC(C)C)C(=O)N[C@@H](CC(=O)O)C(=O)N[C@@H](C(=O)N1CCC[C@H]1C(=O)N[C@H](C(=O)N[C@@H](CCCCN)C(=O)N[C@@H](CC(C)C)C(=O)N[C@@H](CCCCNC(=O)CC[C@H](NC(=O)CCCCCCCCCCCCCCCCCCC(=O)O)C(=O)O)C(=O)N[C@@H](CCCCN)C(=O)N[C@H](C(=O)N[C@@H](CC(C)C)C(=O)N[C@@H](CC(C)C)C(=O)N[C@@H](CCC(=O)O)C(=O)N[C@@H](CCC(N)=O)C(=O)N[C@@H](CCC(=O)O)C(=O)N[C@@H](CCCCN)C(=O)N[C@@H](CCC(N)=O)C(=O)N[C@@H](CCCCN)C(=O)N[C@@H](CCCCN)C(=O)N[C@@H](CCC(N)=O)C(=O)N[C@@H](CCCNC(=N)N)C(=O)N[C@@H](CCC(=O)O)C(=O)N[C@@H](CCC(N)=O)C(=O)N[C@@H](C)C(=O)N[C@@H](CCC(=O)O)C(=O)N[C@H](C(=O)N[C@@H](CC(N)=O)C(=O)NC(C)(C)C(=O)N[C@@H](CCC(N)=O)C(=O)N[C@H](C(=O)N[C@@H](CC(C)C)C(=O)N[C@@H](C)C(=O)N[C@@H](CCC(N)=O)C(=O)N[C@H](C(N)=O)C(C)C)[C@@H](C)CC)[C@@H](C)O)[C@@H](C)CC)[C@@H](C)CC)C(C)C)C(C)C [Cmpd 219] (Pentanoyl-VLSLD[dV]PIKLK([γGlu-C20 diacid])KILLEQEKQKKQREQAETN[Aib]QILAQV-NH2)
16.4 µM | NC(N)=NCCC[C@@H](N)C(=O)N[C@@H](CCCN=C(N)N)C(=O)N1CCC[C@H]1C(=O)N1C[C@H](O)C[C@H]1C(=O)NCC(=O)N[C@@H](Cc1cccs1)C(=O)N[C@@H](CO)C(=O)N1Cc2ccccc2C[C@@H]1C(=O)N1[C@H](C(=O)N[C@@H](CCCN=C(N)N)C(=O)O)C[C@@H]2CCCC[C@@H]21 [Icatibant, reference compound]
> 300 µM | CC[C@H](C)[C@H](NC)C(=O)N[C@H](C(=O)N[C@@H](CC(C)C)C(=O)N[C@@H](CO)C(=O)N[C@@H](CC(C)C)C(=O)N[C@@H](CC(=O)O)C(=O)N[C@@H](C(=O)N1CCC[C@H]1C(=O)N[C@H](C(=O)N[C@@H](CCCCN)C(=O)N[C@@H](CC(C)C)C(=O)N[C@@H](CCCCNC(=O)CC[C@H](NC(=O)CCCCCCCCCCCCCCCCCCC(=O)O)C(=O)O)C(=O)N[C@@H](CCCCN)C(=O)N[C@H](C(=O)N[C@@H](CC(C)C)C(=O)N[C@@H](CC(C)C)C(=O)N[C@@H](CCC(=O)O)C(=O)N[C@@H](CCC(N)=O)C(=O)N[C@@H](CCC(=O)O)C(=O)N[C@@H](CCCCN)C(=O)N[C@@H](CCC(N)=O)C(=O)N[C@@H](CCCCN)C(=O)N[C@@H](CCC(=O)O)C(=O)N[C@@H](CCC(N)=O)C(=O)N[C@@H](CCCNC(=N)N)C(=O)N[C@@H](CCC(=O)O)C(=O)N[C@@H](CCC(N)=O)C(=O)N[C@@H](C)C(=O)N[C@@H](CCC(=O)O)C(=O)N[C@H](C(=O)N[C@@H](CC(N)=O)C(=O)NC(C)(C)C(=O)N[C@@H](CCC(N)=O)C(=O)N[C@H](C(=O)N[C@@H](CC(C)C)C(=O)N[C@@H](C)C(=O)N[C@@H](CCC(N)=O)C(=O)N[C@H](C(N)=O)C(C)C)[C@@H](C)CC)[C@@H](C)O)[C@@H](C)CC)[C@@H](C)CC)C(C)C)C(C)C [Cmpd 218] (H-[NMeI]VLSLD[dV]PIKLK([γGlu-C20 diacid])KILLEQEKQKEQREQAETN[Aib]QILAQV-NH2)
